# Test results taken from ChEMBL document CHEMBL4396863, “Amyloid-Binding Alcohol Dehydrogenase (ABAD) Inhibitors for the Treatment of Alzheimer's Disease” (J Med Chem, 2019).
# What was measured:
# [1] = Inhibition of ABAD (unknown origin); set-up: species or system Homo sapiens
# [2] = Cmax in C57BL/6 mouse at 10 mg/kg by LC-MS/MS analysis; assay type: ADME, organism-based; set-up: dose 10 mg/kg; settings: in vivo
# [3] = Drug uptake in C57BL/6 mouse brain at 10 mg/kg by LC-MS/MS analysis; assay type: ADME, organism-based; settings: in vivo
# [4] = test system: HEK293; assay: Displacement of radiolabeled estradiol ABAD (unknown origin) transfected in HEK293 cells at 300 uM relative to control; assay type: cell-based; settings: Homo sapiens
# [5] = test system: HEK293; assay: Displacement of radiolabeled estradiol ABAD (unknown origin) transfected in HEK293 cells at 100 uM relative to control; assay type: cell-based; settings: Homo sapiens
# [6] = Displacement of radiolabeled estradiol ABAD (unknown origin) transfected in HEK293 cells; assay type: cell-based, Homo sapiens
Structure (SMILES),IC50 [1],other results
O=C(C(c1ccccc1)n1cnc2[nH]ncc2c1=S)N1CCCCCCC1 (stereo unspecified),96 nM,–
O=C(C(c1cccc(O)c1)n1cnc2[nH]ncc2c1=S)N1CCCCCC1 (stereo unspecified),51 nM,–
CCN(CC)C(=O)C(c1ccccc1)n1cnc2[nH]ncc2c1=S (stereo unspecified),93 nM,–
O=C(C(c1ccccc1)n1cnc2[nH]ncc2c1=S)N1CCC(O)(c2ccccc2)CC1 (stereo unspecified),81 nM,–
COc1ccc(NC(=N)Nc2nc3ccc(OC)cc3s2)cc1,3060 nM,–
COc1ccc2nc(N[C@@H](c3ccc(O)cc3)P(=O)(OC)OC)sc2c1,52700 nM,Cmax [2]: 4.8 ng/mL; Drug uptake [3]: 4 to 50 ng/mL
COc1cccc(CN2CCN(C[C@@]3(O)CC[C@@]4(C)[C@@H](CC[C@@H]5[C@@H]4CC[C@]4(C)C(=O)CC[C@@H]54)C3)CC2)c1,–,inhibition [4]: 30%; inhibition [5]: 4.7%; IC50 [6]: 550 nM
O=C(C(c1ccccc1)n1cnc2[nH]ncc2c1=S)N1CCC(O)(c2ccc(Br)cc2)CC1 (stereo unspecified),82 nM,–
O=C(Nc1ccc(O)c(Cl)c1)Nc1nc2ccc(F)cc2s1,1890 nM,–
O=C([C@H](c1ccccc1)n1cnc2[nH]ncc2c1=S)N1CCCCCC1,92 nM,–
CCCCC1(O)CCN(C(=O)C(c2ccccc2)n2cnc3[nH]ncc3c2=S)CC1 (stereo unspecified),71 nM,–
O=C(Nc1ccc(O)c(Cl)c1)Nc1nc2ccc(Cl)cc2s1,1670 nM,–
